Data published in patent US12624050B2, “Three fused ring derivative-containing salt or crystal form and pharmaceutical composition thereof” (Shanghai Hansoh Biomedical Co., Ltd., priority 2019, dated 2026).

Experiments:
[1] = Hygroscopicity experiment; assay type: physicochemical; settings: RH 80%
Method: Crystal form A of mesylate salt, crystal form D of sulfate salt and crystal form A of ethanesulfonate salt of (S)-2-((2-((R)-4-(difluoromethyl)-2-oxothiazolidin-3-yl)-5,6-dihydrobenzo[f]imidazo[1,2-d][1,4]oxazepin-9-yl)amino)propionamide were placed in saturated water vapor with different relative humidity, so that the compound and water vapor reached a dynamic equilibrium, and the percentage of hygroscopic weight gain of the compound after the equilibrium was calculated.

[2] = PK studies in animals of salt crystal forms, intragastric 30 mg/kg; assay type: in vivo; settings: 0.5% HPMC K4M suspension
Method: 7.2.1 Crystal form A of mesylate salt, crystal form D of sulfate salt and crystal form A of ethanesulfonate salt of (S)-2-((2-((R)-4-(difluoromethyl)-2-oxothiazolidin-3-yl)-5,6-dihydrobenzo[f]imidazo[1,2-d][1,4]oxazepin-9-yl)amino)propionamide were evenly suspended in an aqueous solution containing 0.5% HPMC (hydroxypropyl methylcellulose) K4M, and then intragastrically administered to rats in duplicate at a dose of 30 mg/kg. The amount of the compound was all converted into the amount of the same compound (S)-2-((2-((R)-4-(difluoromethyl)-2-oxothiazolidin-3-yl)-5,6-dihydrobenzo[f]imidazo[1,2-d][1,4]oxazepin-9-yl)amino)propionamide.

PI3Kβ = target: T1, PI3Kβ (Homo sapiens, UniProt P42338); test: ADP-Glo Lipid Kinase Assay, PI3Kβ kinase activity; assay type: biochemical; settings: ratio of IC50 values
T1 construct: purchased Carna #11-102
Method: (§1) In this experiment, ADP-Glo Lipid Kinase Assay (Promega #V9102) from Promega was used. The lipid kinases PI3Kα/β/γ/δ catalyzed the ATP-to-ADP reaction in the presence of the substrate PIP2:3PS and ATP. The lipid kinase activity was characterized by measuring the ADP content in the reaction, and the half inhibition concentrations IC50 of the compounds on PI3Kα/β/γ/δ kinase activity were obtained.
(§2) Kinase reactions were carried out in white 384-well plates (Perkin Elmer #6007299). 2 μL of the compound of various concentrations diluted with ddH2O containing 1% DMSO was added to each well, and 2 μL of ddH2O containing 1% DMSO was added to positive control wells. Then 2 μL of 0.1 to 2 nM PI3K kinase solution diluted with 5× kinase buffer (HEPES 250 mM, MgCl2 15 mM, NaCl 250 mM, BSA 0.05%) was added to each well, and 2 μL of 5× kinase buffer was added to the negative control wells. 4 μL of 50 μM substrate PIP2:3PS (Promega #V1701) prepared with 10× Dilution buffer and ddH2O was added to all wells. Finally, 2 μL of 50 to 100 μM ATP solution diluted with water was added to start the reaction. After the reaction was carried out at room temperature for 90 to 120 minutes, 10 µL of ADP-Glo Reagent (containing 10 mM MgCl2) was added to each well, and the reaction was carried out at room temperature for 60 minutes to eliminate excess adenosine triphosphate (ATP) in the reaction. Then 20 μL of Kinase Detection Reagent was added to each well. After the reaction was carried out for 20 minutes at room temperature in the dark, the chemiluminescence was measured by BioTek Synergy H1 microplate reader.
(§3) The percentage inhibition data of the compound-treated well was calculated from positive control wells (DMSO control wells) and negative control wells (no kinase added) on the plate {% inhibition=100−[(test compound value−negative control value)]/(positive control value-negative control value)×100}. IC50 values were calculated using GraphPad prism and using a four-parameter nonlinear logistic formula to fit the data of different concentrations and corresponding percent inhibition.

PI3Kγ = target: T2, PI3Kγ (Homo sapiens, UniProt P48736); test: ADP-Glo Lipid Kinase Assay, PI3Kγ kinase activity; assay type: biochemical; settings: ratio of IC50 values
T2 construct: purchased Thermofisher #PV4786
Method: as §1, §2, §3

PI3Kδ = target: T3, PI3Kδ (Homo sapiens, UniProt O00329); test: ADP-Glo Lipid Kinase Assay, PI3Kδ kinase activity; assay type: biochemical; settings: ratio of IC50 values
T3 construct: purchased Carna #11-103
Method: as §1, §2, §3

HCC1954 (H1047R) = test: Proliferation inhibition of PI3Kα mutant cancer cells, Cell Titer-Glo, HCC1954; assay type: cell-based; settings: Homo sapiens
Method: (§4) The proliferation inhibitory effect of the compounds of the examples on the PI3Kα mutant cancer cell lines (HCC1954, HGC-27 and MKN1) was detected by Cell Titer-Glo method. Cell lines were cultured in RPMI 1640 medium (Gibco #22400089) containing 10% FBS (Gibco #10091148) and 1% P/S (Hyclone #SV30010) under the condition of 37° C. and 5% CO2. The cells were collected before the experiment, and the cell density was adjusted after cell counting. The cells were seeded in a white 96-well plate (Corning #3610) at a density of 1000 to 10000 cells/well, and incubated in an incubator at 37° C. and 5% CO2 overnight. The prepared compound solutions of different concentrations and the corresponding solvent controls were added to the plate. The plate was again incubated in an incubator at 37° C. and 5% CO2 for 48 to 96 hours. Then the cell plate and its contents were equilibrated to room temperature. 20 to 100 μL of Cell Titer-Glo solution (Promega #G7573) was added to each well, and the plate was shaken and mixed well, then incubated at room temperature for 5 to 30 minutes in the dark. The chemiluminescence was measured by a SynergyH1 microplate reader from BioTek.
(§5) The percentage inhibition data of the compound-treated well was calculated from solvent control wells on the plate {% inhibition=100−([…])×100}. IC50 values were calculated using GraphPad prism and using a four-parameter nonlinear logistic formula to fit the data of different concentrations and corresponding percent inhibition.

MKN1 (E545K) = test: Proliferation inhibition of PI3Kα mutant cancer cells, Cell Titer-Glo, MKN1; assay type: cell-based; settings: Homo sapiens, MKN-1
Method: as §4, §5

HGC-27 (E542K) = test: Proliferation inhibition of PI3Kα mutant cancer cells, Cell Titer-Glo, HGC-27; assay type: cell-based; settings: Homo sapiens
Method: as §4, §5

HCC1954 cell = test: In vivo efficacy test, HCC1954 tumor-bearing nude mice; design: species or system BALB/c nude mice; settings: oral, 10 mg/kg, once/day, 21 days (Example 22: 19 days)
Method: • a. A strain of HCC1954 cell was taken from the cell bank, recovered with RPMI-1640 medium (RPMI-1640+10% FBS+1% SP), plated in a cell culture flask (cell type, date, name of the experimenter and the like were labeled on the wall of the flask) and cultured in a CO2 incubator (the temperature was 37° C. and the CO2 concentration was 5% in the incubator). • b. Cells were passaged when they covered 80 to 90% of the bottom of the culture flask. After passage, the cells continued to be cultured in the CO2 incubator. This process was repeated until the number of cells was sufficient for the in vivo efficacy test. • c. The cultured cells were collected and counted with an automatic cell counter, and then resuspended with PBS and Matrigel Matrix according to the counting results to prepare a cell suspension (density 5×10^7/mL), which was placed in an ice box for use. 4.3.2 Cell Inoculation • a. The nude mice were labeled with disposable universal ear tags for rats and mice before inoculation. • b. During the inoculation, the cell suspension was mixed well. 0.1 to 1 mL of the cell suspension was drawn with a 1 mL syringe, air bubbles were removed, and then the syringe was placed on an ice pack for use. • c. The nude mouse was bound with the left hand. The position on the right side of the back close to the right shoulder of the nude mouse (inoculation site) was disinfected with 75% alcohol. Inoculation started after 30 seconds. • d. The test nude mice were successively inoculated (each mouse was inoculated with 0.1 mL of cell suspension). 4.3.3 Tumor Measurement, Grouping and Administration of Tumor-Bearing Mice • a. According to the tumor growth, the tumors was measured on 14 to 18 days after inoculation, and the tumor size was calculated. Calculation of tumor volume: tumor volume (mm^3)=length (mm)×width (mm)×width (mm)/2 • b. The tumor-bearing mice were grouped according to their body weight and tumor size by random grouping. • c. The test compounds were administered according to the grouping results (administration route: oral administration; administration dose: 10 mg/kg; administration volume: 10 mL/kg; administration frequency: once/day; administration cycle: 21 days; vehicle: 0.5% CMC/1% Tween 80). • d. Tumors were measured and weighed twice a week after the administration of test compounds began. • e. Animals were euthanized at the end of the experiment. • f. Data were processed by using softwares such as Excel. […] When the tumor regress, TGI (%)=[1−(average tumor volume of the treatment group at the end of the administration−average tumor volume of the treatment group at the beginning of the administration)/average tumor volume of the treatment group at the beginning of the administration]×100%.

SD rats = test: Toxicity test of a 7-day repeatedly intragastric administration in SD rats; assay type: in vivo; settings: SD rats, intragastric once/day, 7 days
From the text: • Test compound 1: GDC-0077 • Test compound 2: the compounds of Example 22 and Example 62 3.2.2 Vehicle • Name: 20% aqueousSBE-β-CD (Captisol) solution 3.2.3 Animal Information • Species & strains: Sprague-Dawley (SD) rat • Animal grade: SPF grade • Number and sex of animals: 160 rats, half male and half female. 3.2.4 Instruments • The ADVIA®2120 series Hematology System with Autoslide was used for blood cell counting; • The SYSMEX CA-500 Coagulation Analyzer was used for the detection of coagulation function indicators; • The TBA-120FR Automated Biochemical Analyzer was used for the detection of blood biochemical indicators; • The Easylyte Electrolyte Analyzer was used for the detection of electrolytes; • The liquid mass spectrometry detector model API4000; • The electron spray ionization (ESI) positive ion mode and column type Agilent ZORBAX XDB-C18 (3.5 μm, 2.1×50 mm) were used for bioanalytical detection of plasma samples. 3.3 Experimental Method • 1) In the experiment, 160 rats (80 rats/sex) were divided into 20 groups according to their sex and body weight, wherein 100 rats were used for toxicology study (groups 1 to 10, 5 rats/sex/group) and 60 rats were used for toxicokinetic study (groups 11 to 20, 3 rats/sex/group); • 2) As the vehicle control group, the animals in groups 1 and 11 were intragastrically administered 20% aqueous SBE-β-CD (Captisol) solution; • 3) The animals in groups 2 and 12, groups 3 and 13, and groups 4 and 14 were intragastrically administered 10, 30 and 60 mg/kg of GDC-0077, respectively; • 4) The animals in groups 5 and 15, groups 6 and 16, and groups 7 and 17 were intragastrically administered 10, 30 and 60 mg/kg of the compound of Example 22, respectively; • 5) The animals in groups 8 and 18, groups 9 and 19, groups 10 and 20 were intragastrically administered 10, 30 and 60 mg/kg of the compound of Example 62, respectively; • 5) The animals were administered once a day for 7 consecutive days (the animals in groups 7, 17, 10 and 20 were administered for 6 consecutive days). • 6) The administration volume was 10 mL/kg. • 7) During the experiment, items such as clinical observation, body weight, food intake, clinicopathological indicators (blood cell count, coagulation function, blood biochemistry), toxicokinetics and the like were studied. • 8) All animals were euthanized on Day 8 (the animals in groups 7, 10, 17 and 20 were euthanized after administration on Day 6). • 9) During the experiment, gross anatomical observation was performed on the animals in groups 1 to 10, animals in groups 17 and 20, and dead animals (including animals in toxicological study). Histopathological examination was performed on abnormal tissues, gastrointestinal tissues (such as colon, cecum) and immune tissues (such as thymus). […]

[3] = rat, in vivo, po, rats, 30 mg/kg (as free compound)

T3 sequence (O00329 whole entry): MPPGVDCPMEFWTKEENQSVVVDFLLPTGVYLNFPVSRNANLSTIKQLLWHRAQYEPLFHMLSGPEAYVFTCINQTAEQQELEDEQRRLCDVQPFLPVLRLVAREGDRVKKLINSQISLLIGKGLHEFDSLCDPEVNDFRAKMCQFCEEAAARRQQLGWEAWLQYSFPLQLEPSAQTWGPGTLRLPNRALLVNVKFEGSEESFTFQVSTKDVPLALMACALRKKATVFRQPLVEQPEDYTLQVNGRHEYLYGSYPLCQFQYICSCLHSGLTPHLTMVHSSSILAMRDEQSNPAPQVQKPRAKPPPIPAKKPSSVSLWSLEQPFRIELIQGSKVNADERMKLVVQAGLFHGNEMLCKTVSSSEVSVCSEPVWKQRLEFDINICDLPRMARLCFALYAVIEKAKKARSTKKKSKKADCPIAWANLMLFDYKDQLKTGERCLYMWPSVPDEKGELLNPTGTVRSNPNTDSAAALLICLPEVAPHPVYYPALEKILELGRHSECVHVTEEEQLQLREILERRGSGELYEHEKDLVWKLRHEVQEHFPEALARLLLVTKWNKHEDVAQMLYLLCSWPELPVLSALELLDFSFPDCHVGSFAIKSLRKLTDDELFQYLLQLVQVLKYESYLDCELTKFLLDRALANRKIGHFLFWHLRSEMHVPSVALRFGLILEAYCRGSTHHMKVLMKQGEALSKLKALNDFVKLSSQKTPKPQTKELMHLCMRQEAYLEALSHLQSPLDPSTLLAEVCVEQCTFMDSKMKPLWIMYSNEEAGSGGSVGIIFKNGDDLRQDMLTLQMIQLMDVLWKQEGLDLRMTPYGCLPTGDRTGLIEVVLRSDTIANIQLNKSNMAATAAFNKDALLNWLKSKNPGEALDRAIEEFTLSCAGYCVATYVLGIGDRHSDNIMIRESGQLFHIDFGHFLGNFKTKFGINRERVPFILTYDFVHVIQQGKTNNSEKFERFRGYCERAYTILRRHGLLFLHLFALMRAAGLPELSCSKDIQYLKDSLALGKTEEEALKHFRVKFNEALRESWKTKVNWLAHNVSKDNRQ
T3 sequence (P27986 whole entry partner): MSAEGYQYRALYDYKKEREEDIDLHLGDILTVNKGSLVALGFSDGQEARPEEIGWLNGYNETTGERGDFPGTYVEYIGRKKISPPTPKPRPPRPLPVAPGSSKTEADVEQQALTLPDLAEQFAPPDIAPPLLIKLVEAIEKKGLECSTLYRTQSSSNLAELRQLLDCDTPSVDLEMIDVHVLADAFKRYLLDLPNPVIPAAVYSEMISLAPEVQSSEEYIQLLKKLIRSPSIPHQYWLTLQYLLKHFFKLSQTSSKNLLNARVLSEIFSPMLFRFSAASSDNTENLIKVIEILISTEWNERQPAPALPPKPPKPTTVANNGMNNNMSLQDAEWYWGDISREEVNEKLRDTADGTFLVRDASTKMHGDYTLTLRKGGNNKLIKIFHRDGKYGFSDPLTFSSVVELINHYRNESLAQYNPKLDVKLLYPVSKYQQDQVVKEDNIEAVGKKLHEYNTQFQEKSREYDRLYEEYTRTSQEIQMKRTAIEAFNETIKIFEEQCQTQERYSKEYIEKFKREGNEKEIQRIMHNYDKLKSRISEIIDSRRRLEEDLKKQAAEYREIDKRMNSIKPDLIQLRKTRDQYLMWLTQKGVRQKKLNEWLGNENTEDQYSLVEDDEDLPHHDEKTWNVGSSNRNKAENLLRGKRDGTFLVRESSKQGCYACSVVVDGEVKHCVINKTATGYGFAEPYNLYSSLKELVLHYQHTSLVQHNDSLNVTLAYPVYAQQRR
T2 sequence (P48736 whole entry): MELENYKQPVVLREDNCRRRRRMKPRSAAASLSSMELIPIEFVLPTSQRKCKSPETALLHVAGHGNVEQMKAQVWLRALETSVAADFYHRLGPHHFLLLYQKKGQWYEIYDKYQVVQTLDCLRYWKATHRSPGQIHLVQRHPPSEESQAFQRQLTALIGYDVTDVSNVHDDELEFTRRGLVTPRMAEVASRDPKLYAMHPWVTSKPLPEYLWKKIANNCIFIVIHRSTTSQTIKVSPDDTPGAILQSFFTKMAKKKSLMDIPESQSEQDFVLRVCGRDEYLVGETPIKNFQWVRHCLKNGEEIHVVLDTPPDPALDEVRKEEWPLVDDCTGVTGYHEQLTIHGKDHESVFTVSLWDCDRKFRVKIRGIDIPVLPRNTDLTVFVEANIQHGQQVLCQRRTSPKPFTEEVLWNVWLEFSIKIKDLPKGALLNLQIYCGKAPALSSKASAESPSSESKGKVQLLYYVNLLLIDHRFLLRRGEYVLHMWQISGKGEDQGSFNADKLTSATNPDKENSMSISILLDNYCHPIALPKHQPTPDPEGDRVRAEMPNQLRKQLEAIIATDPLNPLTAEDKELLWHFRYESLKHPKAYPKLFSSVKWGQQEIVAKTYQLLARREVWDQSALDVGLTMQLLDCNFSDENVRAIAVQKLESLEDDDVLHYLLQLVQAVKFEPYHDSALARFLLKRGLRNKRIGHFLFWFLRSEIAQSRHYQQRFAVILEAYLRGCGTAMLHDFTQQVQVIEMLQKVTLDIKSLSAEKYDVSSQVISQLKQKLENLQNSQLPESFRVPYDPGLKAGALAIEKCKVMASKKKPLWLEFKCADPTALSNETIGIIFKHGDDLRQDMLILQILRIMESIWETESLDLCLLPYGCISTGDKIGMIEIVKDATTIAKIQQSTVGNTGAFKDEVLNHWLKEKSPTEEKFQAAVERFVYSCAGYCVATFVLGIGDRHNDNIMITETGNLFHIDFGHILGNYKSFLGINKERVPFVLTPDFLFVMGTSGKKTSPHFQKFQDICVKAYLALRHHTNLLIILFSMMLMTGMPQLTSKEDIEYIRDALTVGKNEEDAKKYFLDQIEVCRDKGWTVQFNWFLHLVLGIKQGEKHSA
T1 sequence (P42338 whole entry): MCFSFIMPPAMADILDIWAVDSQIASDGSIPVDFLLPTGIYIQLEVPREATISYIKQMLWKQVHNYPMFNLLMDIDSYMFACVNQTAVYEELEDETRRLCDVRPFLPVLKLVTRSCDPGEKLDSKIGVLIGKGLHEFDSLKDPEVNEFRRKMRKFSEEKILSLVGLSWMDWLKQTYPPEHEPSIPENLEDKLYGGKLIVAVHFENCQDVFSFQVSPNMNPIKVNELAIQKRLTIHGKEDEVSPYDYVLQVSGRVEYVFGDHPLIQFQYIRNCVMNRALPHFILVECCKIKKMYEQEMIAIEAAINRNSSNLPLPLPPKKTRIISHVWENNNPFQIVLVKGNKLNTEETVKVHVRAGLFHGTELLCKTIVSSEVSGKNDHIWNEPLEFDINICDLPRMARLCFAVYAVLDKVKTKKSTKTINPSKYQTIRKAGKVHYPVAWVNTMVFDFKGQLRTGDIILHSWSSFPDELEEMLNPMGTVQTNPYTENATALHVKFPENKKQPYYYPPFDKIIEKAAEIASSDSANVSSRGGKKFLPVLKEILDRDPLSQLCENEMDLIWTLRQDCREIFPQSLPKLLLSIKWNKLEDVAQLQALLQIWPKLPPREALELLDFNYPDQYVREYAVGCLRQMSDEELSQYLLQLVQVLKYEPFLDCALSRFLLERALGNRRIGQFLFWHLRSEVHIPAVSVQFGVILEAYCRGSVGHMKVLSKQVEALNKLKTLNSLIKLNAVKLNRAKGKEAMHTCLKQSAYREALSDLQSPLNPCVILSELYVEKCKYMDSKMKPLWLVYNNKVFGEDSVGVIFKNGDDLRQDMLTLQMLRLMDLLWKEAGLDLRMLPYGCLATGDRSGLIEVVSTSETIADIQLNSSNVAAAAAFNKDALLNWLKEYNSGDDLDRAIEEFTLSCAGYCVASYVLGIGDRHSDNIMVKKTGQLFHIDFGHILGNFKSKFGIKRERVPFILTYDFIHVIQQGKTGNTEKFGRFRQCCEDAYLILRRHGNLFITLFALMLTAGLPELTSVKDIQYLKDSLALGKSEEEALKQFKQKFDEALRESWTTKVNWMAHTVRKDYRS
T1 sequence (P27986 whole entry partner): as the sequence (P27986 whole entry partner) above

Compound	Selectivity of PI3Kα vs PI3Kβ (PI3Kβ)	Selectivity of PI3Kα vs PI3Kγ (PI3Kγ)	Selectivity of PI3Kα vs PI3Kδ (PI3Kδ)	IC50 (HCC1954 (H1047R))	IC50 (MKN1 (E545K))	IC50 (HGC-27 (E542K))	hygroscopic weight gain [1]	hygroscopicity (in words) [1]	exposure in rats (in words) ([2]; 30 mg/kg)	AUC(0-inf) [2, 3]	AUC(0-t) [2, 3]	Cmax [2, 3]	Tmax [2, 3]	half-life [2, 3]	MRT inf ([2]; rat, in vivo, po, rats, 30 mg/kg (as free compound), read-out: MRT0-∞)	Tumor growth inhibition rate (HCC1954 cell)	lethal dose (SD rats)
C[C@H](Nc1ccc2c(c1)OCCn1cc(N3C(=O)SC[C@H]3C(F)F)nc1-2)C(N)=O.O=S(=O)(O)O [crystal form D of sulfate salt, (S)-2-((2-((R)-4-(difluoromethyl)-2-oxothiazolidin-3-yl)-5,6-dihydrobenzo[f]imidazo[1,2-d][1,4]oxazepin-9-yl)amino)propionamide]	–	–	–	–	–	–	1.256%	had hygroscopicity	higher exposures	9600 ng·h/mL	9420 ng·h/mL	1360 ng/mL	1 h	3.3 h	5.77 h	–	–
C[C@H](Nc1ccc2c(c1)OCCn1cc(N3C(=O)OC[C@H]3C(F)F)nc1-2)C(N)=O [GDC-0077, reference compound]	–	–	–	–	–	–	–	–	–	–	–	–	–	–	–	–	60 mg/kg

Further lines, with some results ahead:

Selectivity of PI3Kα vs PI3Kβ (PI3Kβ)	Selectivity of PI3Kα vs PI3Kγ (PI3Kγ)	Selectivity of PI3Kα vs PI3Kδ (PI3Kδ)	IC50 (HCC1954 (H1047R))	IC50 (MKN1 (E545K))	IC50 (HGC-27 (E542K))	Compound	hygroscopic weight gain [1]	hygroscopicity (in words) [1]	exposure in rats (in words) ([2]; 30 mg/kg)	AUC(0-inf) [2, 3]	AUC(0-t) [2, 3]	Cmax [2, 3]	Tmax [2, 3]	half-life [2, 3]	MRT inf ([2]; rat, in vivo, po, rats, 30 mg/kg (as free compound), read-out: MRT0-∞)	Tumor growth inhibition rate (HCC1954 cell)	lethal dose (SD rats)
754	376	139	57 nM	109 nM	137 nM	COC[C@H](Nc1ccc2c(c1)OCCn1cc(N3C(=O)SC[C@H]3C(F)F)nc1-2)C(N)=O [Example 52, (S)-2-((2-((R)-4-(difluoromethyl)-2-oxothiazolidin-3-yl)-5,6-dihydrobenzo[f]imidazo[1,2-d][1,4]oxazepin-9-yl)amino)-3-methoxypropionamide]	–	–	–	–	–	–	–	–	–	98%	–
197	103	81	98 nM	118 nM	233 nM	C[C@H](Nc1ccc2c(c1F)OCCn1cc(N3C(=O)SC[C@H]3C(F)F)nc1-2)C(N)=O [Example 50, (S)-2-((2-((R)-4-(difluoromethyl)-2-oxothiazolidin-3-yl)-8-fluoro-5,6-dihydrobenzo[f]imidazo[1,2-d][1,4]oxazepin-9-yl)amino)propionamide]	–	–	–	–	–	–	–	–	–	96%	–
1499	401	280	79 nM	84 nM	93 nM	C[C@H](Nc1ccc2c(c1)OCCn1cc(N3C(=O)O[C@H](C)[C@H]3C(F)F)nc1-2)C(N)=O [Example 25, (S)-2-((2-((4S,5R)-4-(difluoromethyl)-5-methyl-2-oxooxazolidin-3-yl)-5,6-dihydrobenzo[f]imidazo[1,2-d][1,4]oxazepin-9-yl)amino)propionamide]	–	–	–	–	–	–	–	–	–	120%	–
